Measurements from patent US20090106856A1, “Selection System for Wheat” (BASF PLANT SCIENCE GMBH, priority 2005, published 2009).

Legend:
[1] = test system: Transgenic T1 dao1 seedlings; assay: Negative selection of transgenic T1 dao1 seedlings; type: in vivo, Triticum aestivum
Experimental: T1 immature embryos were assayed with bioassay for germination of immature embryos on selection. […] Furthermore transgenic T1 seedlings were tested for negative selection using D-isoleucine and D-valine containing medium. Transgenic T1 dao1 seedlings were sensitive to the concentrations range from 10 to 30 mM D-isoleucine and 15-20 mM D-valine (FIG. 11).

wheat callus = assay: Killing curve: callus growth and regeneration under constant selection pressure; type: cell-based, Triticum aestivum
Experimental: To define the sensitivity of wheat tissues during transformation when D-Serine and D-Alanine are present as selection agents regeneration experiments with immature embryos were designed. Immature embryos were immersed in PAWinf medium and subjected to all steps of callus induction, callus maintaining and regeneration in transformation protocol above.
Sensitivity of callus tissue under constant selection pressure were evaluated using range of concentrations: 0.5 mM, 1 mM, 3 mM, 5 mM, 10 mM, 25 mM, 50 mM. Experiments were performed in triplicates. Percentage of embryos forming embryos-genic callus was scored on PAW-4 regeneration medium. At the end of shoots elongation regeneration capacity of the calluses was scored as calluses regenerating shoots and number of shoots per callus.
Range of the tested concentrations 0.5-50 mM D-ser and D-ala are evaluated in replicating regeneration experiments. The effect of selective compounds is estimated during callus growth and shoots formation following transformation procedure on medium with D-serine and D-alanine (Table 4).

wheat in vitro shoots = assay: Killing curve: rooting of in vitro shoots; type: in vivo, Triticum aestivum
Description: […] The effect of selection agents was observed two and tree weeks later. Number of plantlets with growing roots and green leaves were scored.
In vitro regenerated shoots from media lacking the selection compounds were collected and transferred on medium for rooting (½ MS salts hormone free). Roots formation, growth of the shoots and leaves elongation was scored two and four weeks later after sub culturing of these shoots to the medium supplemented with D-amino acids (Table 5).

wheat immature embryos = assay: Killing curve: in vitro germination of immature embryos and seedling growth; type: in vivo, Triticum aestivum
Experimental: In order to establish effective concentrations of D-serine and D-alanine on inhibiting growth of tissue cultured wheat cells, a bioassay system using immature embryos was applied. Immature embryos 2 mm in length were dissected onto germination medium with the selection agents, and incubated at 27° C. in light. The number of germinated embryos with well-developed shoots and brunched shoots were scored after 14 days.
Immature embryos 2 mm in size were isolated from the sterilized caryopses. The embryos were cultured on PAW-5 hormone free medium for germination in dark. Seedlings growth on D-amino acid selection was observed after 2 weeks. Most of the embryos germinated but the seedlings growth was inhibited when roots emerge and the uptake of the selection compound was direct from the medium. The Lethal Dose (LD 100) for seedlings germination and growth was 1 mM concentration of both D-amino acids tested (Table 6). Seedlings derived from embryos isolated from the immature caryopsis without endosperms were susceptible to the selection in concentration higher than 1 mM (FIG. 8).

[2] = test system: wheat variety Canon immature embryos / embryogenic callus; assay: Agrobacterium-mediated transformation with dao1 constructs and selection of transgenic plants; type: cell-based, Triticum aestivum; conditions: pRLM205 (dao1 original), 5 mM selection
Experimental: (§1) Explants were washed with PAW-Inf. medium and immersed in the above-described bacterial suspension for 2 h at 26° C. At the end of infection the explants were placed with scutellum side up on PAW-1 medium. The residual bacterial suspension is removed by pipeting out and air-drying of the infected embryos by opening plates for 15 min on the sterile banch. Plates were sealed with Parafilm and placed in thermostat at 26° C. in the dark for 5-6 days co-cultivation.
(§2) After co-cultivation period the explants were washed with sterile water and 500 mg/L Cefotaxime and filter paper dried before being transferred to PAW-2 callus induction-recovery medium containing 160 mg/l Timentin for 14 days (7 days dark/7 days semi light; 13.2 μmol m^−2s^−1). Explants with embryogenic callus were subculture to PAW-2 callus-proliferation medium containing 160 mg/l Timentin and corresponding selection 5 mM D-serine or 5 mM D-alanine or 3 mg/l bialaphos. In some experiments the selection on D-amino acids was starting on PAW-2 callus induction medium 0, 7, 14 and 21 days after co cultivation. Embryogenic callus was subculture twice on fresh selective medium for callus maintaining and regeneration on PAW-4 medium with corresponding selection. Cultures were maintained at 23° C. on light 60.2 μmol m^−2s^−1. Regenerated shoots were subculture to PAW-5 hormone free medium with corresponding selection (5 mM D-serine or 5 mM D-alanine or 3 mg/l bialaphos) for further growth and rooting. All media used in the transformation experiments were filter sterilized and are listed in above. After analyses transgenic plants were transferred to soil and placed for further growth in greenhouse. 1.4 Molecular and expression studies of the transgenic plants
Freshly isolated immature embryos from Canon were inoculated with Agrobacterium. In all experiments Agrobacterium tumefactions super binary vector system based on LBA4404 (pSB1) was used. The constructs pRLM205 containing the original dao1 gene and pRLM226 carrying modified Daol. Both constructs contain gusINT reporter marker gene (FIGS. 3, I and II). Following co cultivation the explants were transferred on callus induction PAW-2 selection free medium containing 160 mg/l Timentin to inhibit bacterial growth for 14 days. For selection embryogenic callus was transferred to PAW-2 selection medium containing 5 mM D-serine or 5 mM D-alanine respectively. Furthermore calli were sub cultured to fresh corresponding selection PAW-2 medium for maintaining. Embryogenic calli were trans-ferred on PAW-4 selection medium for regeneration 5-6 weeks after transformation. The emerging plantlets were further grown and rooted on PAW-5 hormone free selection medium. Well-developed and rooted on selection putative transgenic regenerants were selected in vitro within. When D-alanine was used as selection compound similar effects in callus growth, shoots regeneration and rooting of transgenic plants or non transgenic escapes selected on D-serine was observed. Both selection agents resulted with 1.1% to 1.2% transformation efficiency and no escape rate (Table 9).

[3] = test system: wheat variety Canon immature embryos / embryogenic callus; assay: Agrobacterium-mediated transformation with dsdA constructs and selection of transgenic plants; type: cell-based, Triticum aestivum
Experimental: as §1, §2
Freshly isolated immature embryos from Canon were inoculated with Agrobacterium. In all experiments Agrobacterium tumefacience LBA4404 (pSB1/pRLM167) (SEQ ID NO: 11) was used. The pRLM167 is a super binary vector containing p-ZmUBI+I::c-dsdA::t-OCS and p-ZmUBI+I::c-PAT::t-OCS selectable marker genes in expression cassettes (FIG. 1). Following co cultivation the explants were given a chance to recover for 14 days on callus induction selection free medium containing 160 mg/l Timentin to inhibit bacterial growth. Under these conditions 59% to 76% of the embryogenic callus developed over the all surface of immature embryos. Embryogenic callus was split in two and transferred to two the corresponding selection medium containing 5-mM D-serine or 3 mg/l bialaphos. During subsequent growth of callus, regeneration of plantlets, shoots elongation and roots formation the respective selection pressure was maintained in each of the corresponding medium. After 7 weeks of selection 38%-47% of the embryogenic calli regenerated with plants when selected on bialaphos or on D-serine respectively. Further selection of the regenerants was performed during the elongation and rooting of the regenerants for an additional 3 weeks. Intact in vitro transgenic shoots were selected within 10-12 weeks after co cultivation.
Freshly isolated immature embryos from Canon were inoculated with Agrobacterium. In all experiments Agrobacterium tumefacience super binary vector system based on LBA4404 (pSB1) was used. The constructs pRLM179, pRLM166, pRLM151 (FIG. 2. I, II and III) containing dsdA selectable marker gene alone or with a second gene (ahas or gusINT) were used for transformation. The explants were cultured on selection medium right away after co-cultivation with Agrobacterium or were cultivated on callus induction—recovery medium for 7, 14 and 21 days containing only 160 mg/l Timentin for inhibiting bacterial growth. Furthermore calli were sub cultured to fresh selection PAW-2 medium for proliferation. Embryogenic calli were transferred on PAW-4 selection medium for regeneration 5-6 weeks after transformation. The emerging plantlets were further grown and rooted on PAW-5 hormone free selection medium. […]

[4] = construct pRLM167 (dsdA/pat), selection on 5 mM D-serine or 3 mg/l bialaphos

## CC(C)[C@@H](N)C(=O)O [D-valine]
[1]
  concentration range to which seedlings were sensitive (negative selection): 15 to 20 mM

## C[C@@H](N)C(=O)O [D-alanine]
Wheat callus; 5 mM
  Regeneration capacity of the calli reduced: 70%
Wheat callus; Bobwhite, 0.5 mM
  Regenerated Embryogenic Lines (%): 85%
Wheat callus; Bobwhite, 3 mM
  Regenerated Embryogenic Lines (%): 52%
Wheat callus; Bobwhite, 5 mM
  Regenerated Embryogenic Lines (%): 14%
Wheat callus; Bobwhite, 10 mM
  Regenerated Embryogenic Lines (%): 4%
Wheat callus; Bobwhite, 15 mM
  Regenerated Embryogenic Lines (%): 0%
Wheat callus; Bobwhite, 25 mM
  Regenerated Embryogenic Lines (%): 0%
Wheat callus; Bobwhite, 50 mM
  Regenerated Embryogenic Lines (%): 0%
Wheat callus; Canon, 0.5 mM
  Regenerated Embryogenic Lines (%): 63%
Wheat callus; Canon, 3 mM
  Regenerated Embryogenic Lines (%): 44%
Wheat callus; Canon, 5 mM
  Regenerated Embryogenic Lines (%): 19%
Wheat callus; Canon, 10 mM
  Regenerated Embryogenic Lines (%): 3%
Wheat callus; Canon, 15 mM
  Regenerated Embryogenic Lines (%): 0%
Wheat callus; Canon, 25 mM
  Regenerated Embryogenic Lines (%): 0%
Wheat callus; Canon, 50 mM
  Regenerated Embryogenic Lines (%): 0%
Wheat callus; tested in both varieties
  lethal dose (LD 100) for regeneration response of callus: 15 mM
Wheat in vitro shoots; 5 mM
  root formation of non-transgenic shoots: not able to form roots
Wheat in vitro shoots; Bobwhite, 1 mM
  Rooted Shoots (%): 34%
Wheat in vitro shoots; Bobwhite, 3 mM
  Rooted Shoots (%): 13%
Wheat in vitro shoots; Bobwhite, 5 mM
  Rooted Shoots (%): 1%
Wheat in vitro shoots; Bobwhite, 10 mM
  Rooted Shoots (%): 0%
Wheat in vitro shoots; Bobwhite, 15 mM
  Rooted Shoots (%): 0%
Wheat in vitro shoots; Bobwhite, 25 mM
  Rooted Shoots (%): 0%
Wheat in vitro shoots; Canon, 1 mM
  Rooted Shoots (%): 36%
Wheat in vitro shoots; Canon, 3 mM
  Rooted Shoots (%): 11%
Wheat in vitro shoots; Canon, 5 mM
  Rooted Shoots (%): 1%
Wheat in vitro shoots; Canon, 10 mM
  Rooted Shoots (%): 0%
Wheat in vitro shoots; Canon, 15 mM
  Rooted Shoots (%): 0%
Wheat in vitro shoots; Canon, 25 mM
  Rooted Shoots (%): 0%
Wheat immature embryos; Bobwhite, 0.5 mM
  In vitro germination, Immature Embryos (%): 56%
Wheat immature embryos; Bobwhite, 1 mM
  In vitro germination, Immature Embryos (%): 0%
Wheat immature embryos; Bobwhite, 5 mM
  In vitro germination, Immature Embryos (%): 0%
Wheat immature embryos; Bobwhite, 10 mM
  In vitro germination, Immature Embryos (%): 0%
Wheat immature embryos; Canon, 0.5 mM
  In vitro germination, Immature Embryos (%): 40%
Wheat immature embryos; Canon, 1 mM
  In vitro germination, Immature Embryos (%): 0%
Wheat immature embryos; Canon, 5 mM
  In vitro germination, Immature Embryos (%): 0%
Wheat immature embryos; Canon, 10 mM
  In vitro germination, Immature Embryos (%): 0%
[2]
  ER (%) Escape Rate: 0%
  TE (%) Transformation Efficiency: 1.27%

## C[C@H](NC(=O)[C@H](C)NC(=O)[C@@H](N)CCP(C)(=O)O)C(=O)O [bialaphos]
[3]; [4]
  ER Escape Rate (% of non-transgenic regenerants out of all selected plants): 59%
  TE Transformation Efficiency (% of transgenic plants out of the explants): 2.1%
[3]; pRLM167, after 7 weeks of selection, 5 mM D-serine or 3 mg/l bialaphos
  embryogenic calli regenerated with plants: 38%
